According to patent publication US9114126B2, “Na/K-ATPase ligands, ouabain antagonists, assays and uses thereof” (The University of Toledo, priority 2009, dated 2015):
“Also recorded” adds a separate entry of the source.

Assays:
purified Na/K-ATPase [1] = molecular target: T1, purified Na/K-ATPase (Sus scrofa (Pig), UniProt P05024); experiment: Na/K-ATPase activity, 96-well high throughput screen assay (released phosphate, BIOMOL GREEN); format: biochemical; details: for effect of changes in K+ concentration on compound-induced inhibition of Na/K-ATPase: data not shown
Description: The purified Na/K-ATPase was prepared from pig kidney. The specific activities of Na/K-ATPase of various kidney preparations were in the range of 900-1,200 μmol/mg/h, which were greater than 95% of the total ATPase activity. The high throughput screen is conducted in a 96-well format with the final reaction volume of 100 μl containing the following components: 100 mM NaCl, 20 mM KCl, 1 mM MgCl2, 1 mM EGTA, 20 mM Tris-HCl (pH 7.4) and 0.2 μg of purified Na/K-ATPase. After compounds were added, mixtures were incubated for 15 min at 37° C. for 15 min and reaction was initiated by adding 2 mM ATP.Mg mixture.
Reactions were carried out for 15 min and then stopped by the addition of 100 μl ice-cold trichloroacetic acid. Reaction mixtures were cleared by centrifugation, and assayed for released phosphate using the BIOMOL GREEN™ Reagent according to the manufacturer's instructions. In addition, the control Na/K-ATPase activity was measured in the presence and absence of 1 mM ouabain, and taken as 100%. Furthermore, 5 μM ouabain and 0.1% of DMSO were included in each plate as a positive and a vehicle control, respectively.

purified Na/K-ATPase [2] = molecular target: T1, purified Na/K-ATPase; experiment: 3H-ouabain binding to the purified Na/K-ATPase; details: 20 nM 3H ouabain
Description: FIG. 8: Effects of MB5 on ouabain binding to the purified Na/K-ATPase. The purified Na/K-ATPase (2 μg) was incubated with 20 nM ^3H ouabain in the presence of different concentrations of MB5.

purified Na/K-ATPase [3] = molecular target: T1, purified Na/K-ATPase; experiment: Na/K-ATPase activity assay (Example II), two-phase inhibition; format: biochemical
Description: FIGS. 7A-7C: Dose-dependent inhibition of Na/K-ATPase by MB5: FIG. 7A: The two phase inhibition of both low and high affinity.
The purified Na/K-ATPase was prepared from pig kidney. The specific activities of Na/K-ATPase of various kidney preparations were in the range of 900-1,200 μmol/mg/h, which were greater than 95% of the total ATPase activity. The Na/K-ATPase assay was conducted in the following reaction buffer with the final volume of 500 μl: 100 mM NaCl, 20 mM KCl, 1 mM MgCl2, 1 mM EGTA, 20 mM Tris-HCl (pH 7.4) and 1 μg of purified Na/K-ATPase. After compounds were added, mixtures were incubated for 15 min at 37° C. for 15 min and reaction was initiated by adding 2 mM ATP.Mg mixture. Reactions were carried out for 15 min and then stopped by the addition of 300 μl ice-cold trichloroacetic acid. Reaction mixtures were cleared by centrifugation, and assayed for released phosphate using the BIOMOL GREEN™ Reagent according to the manufacturer's instructions.

[4] = tested on: ouabain-induced ERK activation in LLC-PK1 cells; experiment: Ouabain-induced activation of ERKs in LLC-PK1 cells after MB5 pretreatment; format: cell-based, pig; details: 15 min pretreatment, ouabain 1 nM and 100 nM
Description: FIG. 9B: Effects of MB5 on ouabain-induced activation of ERKs. LLC-PK1 cells were pretreated with different concentrations of MB5 (1 nM, 10 μM) for 15 min, exposed to 1 nM ouabain for 10 min, and assayed for active ERKs as in FIG. 9A. A representative set of images is shown.
FIG. 9C: Effects of MB5 on ouabain-induced activation of ERKs. LLC-PK1 cells were pretreated with different concentrations of MB5 (1 nM, 10 μM) for 15 min, exposed to 100 nM ouabain for 10 min, and assayed for active ERKs as in FIG. 9A. A representative set of images is shown.
FIG. 9D: Effects of MB5 on ouabain-induced activation of ERKs. LLC-PK1 cells were pretreated with different concentrations of MB5 (1 nM, 10 μM) for 15 min, exposed to 1 nM ouabain for 1 hour, and assayed for active ERKs as in FIG. 9A. A representative set of images is shown.
(§1) LLC-PK1 cells grown on coverslips were serum starved for 24 h and treated with MB5 or ouabain for different times Immunostaining of p-ERK was performed using the commercial available ERK/MAPK (Phospho-Thr202/Tyr204) Phosphorylation/Translocation Cell-Based Assay Kit according to the manufacturer's instructions. The signals were detected by a Leica confocal microscope. Leica confocal software was used for data analysis.
Ouabain stimulates protein kinase cascades via a Src-dependent pathway in LLC-PK1 cells. […]

[5] = tested on: EGF or dopamine-induced ERK activation in LLC-PK1 cells; experiment: EGF- or dopamine-induced activation of ERKs in LLC-PK1 cells after MB5 pretreatment; format: cell-based, pig; details: MB5 1 nM, 10 μM, 15 min pretreatment
Description: FIG. 9E: Effects of MB5 on stimuli-induced activation of ERKs. LLC-PK1 cells were pretreated with different concentrations of MB5 (1 nM, 10 μM) for 15 min, exposed to epidermal growth factor (EGF) or Dopamine stimuli for either 10 or 3 min, and assayed for active ERKs as in FIG. 9A. A representative set of images is shown.
as §1
Ouabain stimulates protein kinase cascades via a Src-dependent pathway in LLC-PK1 cells. To determine whether MB5 can antagonize ouabain-induced signal transduction, treated LLC-PK1 cells were pre-treated with different concentrations of MB5 for 15 min and then exposed to ouabain or other stimuli.

Na-ATPase = Na-ATPase (Sus scrofa (Pig), UniProt P05024); experiment: Na-ATPase activity inhibition; format: biochemical
Description: In the experiments depicted in FIG. 1A, the dose-response curves of MB7 were compared with ouabain. […] Furthermore, 10 μM MB7 produced 58±6% inhibition of Na-ATPase as did on Na/K-ATPase.

Na/K-ATPase/Src complex = Na/K-ATPase/Src complex (Sus scrofa (Pig), UniProt P05024); experiment: Activation of receptor Na/K-ATPase/Src complex (pY418 Western blot); format: biochemical; details: reconstituted complex in test tube; ouabain 10 μM, MB7 1 and 10 μM
Description: FIG. 3: Effects of MB7 and ouabain on receptor Na/K-ATPase/Src complex. The purified Na/K-ATPase (2 μg) and purified Src were incubated in the presence of either 10 μM ouabain or 1 and 10 μM MB7 for 15 min and assayed for Src activation as described in “Experimental Procedures”. Values are mean SE of at least three independent experiments. **p<0.01 compared with control.
The activity of receptor Na/K-ATPase/Src complex was assayed. Briefly, the purified Src (4.5 U) was incubated with 2 μg of the purified Na/K-ATPase in phosphate-buffered saline (PBS) for 30 min at 37° C. Afterward, the Na/K-ATPase/Src complex was exposed to ouabain or MB7 for 10 min. Reaction was initiated by addition of 2 mM ATP/Mg^2+, continued for 5 min at 37° C. and was stopped by addition of SDS sample buffer. The activation of Src was measured by Western blot using anti-pY418 antibody. Total Src was also probed for loading control.

Src in A549 cells = experiment: Src activation in A549 cells (Western blot); format: cell-based, human; details: 10 min; 100 nM ouabain, MB7 up to 10 μM
Description: FIG. 4A: Effects of MB7 and ouabain on Src and ERKs. A549 cells were treated with ouabain or MB7 for 10 min and cell lysates (50 μg/lane) were separated by SDS-PAGE and analyzed for Src activation as in FIG. 3. The values are mean±S.E. from four separate experiments. *, p<0.05 versus control.
The pig kidney epithelia cells (LLC-PK1 cells) and human lung cancer cells (A549 cells) were obtained from ATCC and maintained in Dulbecco's modified Eagle's medium (DMEM) in the presence of 10% FBS, 100 units/ml penicillin, and 100 μg/ml streptomycin in a 5% CO2 humidified incubator. To eliminate the confounding effect of growth factors in the serum, cells were serum starved for 24 h before experiments unless otherwise indicated.
Cells were washed with PBS and solubilized in ice-cold RIPA buffer containing 1% Nonidet P-40, 1% sodium deoxycholate, 150 mM NaCl, 1 mM EDTA, 1 mM phenylmethylsulfonyl fluoride, 1 mM sodium orthovanadate, 1 mM NaF, 10 μg/ml aprotinin, 10 μg/ml leupeptin, and 50 mM Tris-HCl (pH 7.4) as previously described (13). Cell lysates were then cleared by centrifugation at 14,000 rpm, and supernatants were used for protein assay and subjected to Western blot analysis. Samples were separated on SDS-PAGE (50 μg/lane) and transferred to a cellulose membrane. […] Protein signals were detected using an ECL kit and quantified using a Bio-Rad GS-670 imaging densitometer.

ERKs in LLC-PK1 cells = experiment: p-ERK immunostaining in LLC-PK1 cells; format: cell-based, pig; details: for cellular ERK activity (active ERKs by immunostaining): LLC-PK1, 10 min, 100 nM ouabain, MB7 from 100 nM to 10 μM
Description: FIG. 4B: LLC-PK1 cells were treated with MB7 or ouabain for 10 minutes and were immunostained with the ERK/MAPK (Phospho-Thr202/Tyr204) Phosphorylation/Translocation Cell-Based Assay Kit according to the manufacturer's instructions. The images were collected as described under “Experimental Procedures.” The scale bar represents […]. Images from a representative experiment are shown. The quantitative data of p-ERK were collected from 40 different fields in three independent experiments and expressed as mean±S.E. *, p<0.05 versus control.
LLC-PK1 cells grown on coverslips were serum starved for 24 h and treated with MB7 or ouabain for different times Immunostaining of p-ERK was performed using the commercial available ERK/MAPK (Phospho-Thr202/Tyr204) Phosphorylation/Translocation Cell-Based Assay Kit according to the manufacturer's instructions. The signals were detected by a Leica confocal microscope. Leica confocal software was used for data analysis.
as §1

[6] = inhibition of purified pig kidney Na/K-ATPase, Table II, read-out: IC50

SMILES: COc1cc(O)c2c(=O)c3c(OC)c(O)ccc3oc2c1 [2027BA1]
- IC50 (purified Na/K-ATPase [1]; [6]): > 100 µM

SMILES: COc1cc(O)c2c(=O)c3c(O)c(OC)ccc3oc2c1 [2027BA2]
- IC50 (purified Na/K-ATPase [1]; [6]): > 100 µM

SMILES: COc1ccc2oc3cc(OC)c(OC)c(OC)c3c(=O)c2c1 [C-017]
- IC50 (purified Na/K-ATPase [1]; [6]): > 100 µM

SMILES: O=c1c2ccccc2oc2cc(O)cc(O)c12 [MB1, 1,3-Dihydroxyxanthone]
- IC50 (purified Na/K-ATPase [1]; [6]): > 100 µM

SMILES: O=c1c2ccccc2oc2c(O)c(O)ccc12 [MB2, 3,4-Dihydroxyxanthone]
- IC50 (purified Na/K-ATPase [1]; [6]): > 100 µM

SMILES: O=c1c2cccc(O)c2oc2cc(O)cc(O)c12 [MB3, 1,3,5-Trihydroxyxanthone]
- IC50 (purified Na/K-ATPase [1]; [6]): 65 µM

SMILES: O=c1c2cccc(O)c2oc2c(O)c(O)ccc12 [MB5, 3,4,5-Trihydroxyxanthone]
- IC50 (purified Na/K-ATPase [1]; [6]): 10 µM
- concentration at which significant inhibition of ouabain binding was detected (purified Na/K-ATPase [2]): 0.1 nM
- maximal inhibition of ouabain binding (purified Na/K-ATPase [2]; 10 μM MB5): 30%
- inhibition at 50 µM (purified Na/K-ATPase [3]; at about 50 μM, read-out: inhibition by low affinity binding): 100%
- inhibition of the ATPase activity by high affinity inhibition (purified Na/K-ATPase [3]; high affinity phase): about 25%
- IC50 (purified Na/K-ATPase [3]; high affinity site, sub-nM concentrations): 0.04 nM
- effect on ouabain-induced activation of ERKs ([4]; MB5 at 1 nM): significantly reduce
- effect on ouabain-induced activation of ERKs ([4]; MB5 at 10 μM): completely blocked
- effect on ERK activation induced by EGF or dopamine [5]: failed to affect ERK activation

SMILES: O=c1c2ccc(O)c(O)c2oc2cc(O)cc(O)c12 [MB6, 1,3,5,6-Tetrahydroxyxanthone]
- IC50 (purified Na/K-ATPase [1]; [6]): 60 µM

SMILES: O=c1c2ccc(O)c(O)c2oc2c(O)c(O)ccc12 [MB7, 3,4,5,6-Tetrahydroxyxanthone]
- effect on Na+ and ATP affinities of Na/K-ATPase (purified Na/K-ATPase [1]; MB7 at 10 μM, substrate dependence, FIG. 2A-2B): reduced both Na^+ and ATP affinities
- effect of changes in K+ concentration on compound-induced inhibition of Na/K-ATPase (purified Na/K-ATPase [1]): no effect
- IC50 (purified Na/K-ATPase [1]; dose-dependent inhibition of Na/K-ATPase, FIG. 1A, read-out: apparent IC50): 5 µM
- IC50 (purified Na/K-ATPase [1]; [6]): 5 µM
- inhibition at 10 µM (Na-ATPase): 58 ± 6%
- activation of Na/K-ATPase-associated Src (Na/K-ATPase/Src complex): failed to activate Src
- Src activation in A549 cells (Src in A549 cells): failed to do the same
- cellular ERK activity (active ERKs by immunostaining) (ERKs in LLC-PK1 cells): failed to affect cellular ERK activity

SMILES: COc1ccc2c(=O)c3ccc(OC)c(OC)c3oc2c1 [MB8]
- IC50 (purified Na/K-ATPase [1]; [6]): > 100 µM

SMILES: C[C@@H]1O[C@@H](O[C@H]2C[C@@H](O)[C@]3(CO)[C@H]4[C@H](O)C[C@]5(C)[C@@H](C6=CC(=O)OC6)CC[C@]5(O)[C@@H]4CC[C@]3(O)C2)[C@H](O)[C@H](O)[C@H]1O [ouabain]
- IC50 (purified Na/K-ATPase [1]): ~5 µM
- effect of changes in K+ concentration on compound-induced inhibition of Na/K-ATPase (purified Na/K-ATPase [1]): antagonized
- activation of Na/K-ATPase-associated Src (Na/K-ATPase/Src complex): stimulated
- Src activation in A549 cells (Src in A549 cells): stimulated Src
- cellular ERK activity (active ERKs by immunostaining) (ERKs in LLC-PK1 cells): increased cellular amount of active ERKs
- ERK stimulation (ERKs in LLC-PK1 cells; LLC-PK1, ouabain 1 nM and 100 nM, time and concentration-dependent): stimulated ERKs

SMILES: O=c1c2ccccc2oc2ccccc12 [xanthone, reference compound]
- inhibition of Na/K-ATPase activity (purified Na/K-ATPase [1]; dose-response curves): failed to inhibit; also recorded: no detectable inhibition
